Assay results as given in patent US20140315889A1, “HYDROXAMATE DERIVATIVES FOR HDAC INHIBITOR, AND THE PHARMACEUTICAL COMPOSITION COMPRISING THEREOF” (CHONG KUN DANG PHARMACEUTICAL CORP., priority 2011, published 2014).

What was measured:
Human recombinant HDAC1 = biological target: T1, Human recombinant HDAC1 (Homo sapiens, UniProt Q13547); experiment: HDAC enzyme activity test, HDAC1; format: biochemical; settings: Table 12; read-out: Inhibition ability (IC50) HDAC1
T1 construct: purchased Enzo Life Science Co. (named for the kit; assigned to the enzyme from the BML- catalogue prefix) BML-SE456
Procedure: (§1) Then, 0.3 μg of enzyme and 10 μM of substrate per well were added, reacted at 30° C. for 60 minutes. Thereto, Fluor de Lys® Developer II (BML-KI176) was added and reacted for 30 minutes. […] From the data, the respective IC50 were calculated by GraphPad Prism 4.0 program.

human recombinant HDAC6 = biological target: T2, human recombinant HDAC6 (Homo sapiens, UniProt Q9UBN7); experiment: HDAC enzyme activity test, HDAC6; format: biochemical; settings: Table 12; for Selectivity for HDAC6, HD1/HD6: ratio HDAC1 IC50 / HDAC6 IC50; for IC50: read-out: Inhibition ability (IC50) HDAC6
T2 construct: purchased Calibiochem Co. (so in the source) 382180
T2 sequence (Q9UBN7 1-1215): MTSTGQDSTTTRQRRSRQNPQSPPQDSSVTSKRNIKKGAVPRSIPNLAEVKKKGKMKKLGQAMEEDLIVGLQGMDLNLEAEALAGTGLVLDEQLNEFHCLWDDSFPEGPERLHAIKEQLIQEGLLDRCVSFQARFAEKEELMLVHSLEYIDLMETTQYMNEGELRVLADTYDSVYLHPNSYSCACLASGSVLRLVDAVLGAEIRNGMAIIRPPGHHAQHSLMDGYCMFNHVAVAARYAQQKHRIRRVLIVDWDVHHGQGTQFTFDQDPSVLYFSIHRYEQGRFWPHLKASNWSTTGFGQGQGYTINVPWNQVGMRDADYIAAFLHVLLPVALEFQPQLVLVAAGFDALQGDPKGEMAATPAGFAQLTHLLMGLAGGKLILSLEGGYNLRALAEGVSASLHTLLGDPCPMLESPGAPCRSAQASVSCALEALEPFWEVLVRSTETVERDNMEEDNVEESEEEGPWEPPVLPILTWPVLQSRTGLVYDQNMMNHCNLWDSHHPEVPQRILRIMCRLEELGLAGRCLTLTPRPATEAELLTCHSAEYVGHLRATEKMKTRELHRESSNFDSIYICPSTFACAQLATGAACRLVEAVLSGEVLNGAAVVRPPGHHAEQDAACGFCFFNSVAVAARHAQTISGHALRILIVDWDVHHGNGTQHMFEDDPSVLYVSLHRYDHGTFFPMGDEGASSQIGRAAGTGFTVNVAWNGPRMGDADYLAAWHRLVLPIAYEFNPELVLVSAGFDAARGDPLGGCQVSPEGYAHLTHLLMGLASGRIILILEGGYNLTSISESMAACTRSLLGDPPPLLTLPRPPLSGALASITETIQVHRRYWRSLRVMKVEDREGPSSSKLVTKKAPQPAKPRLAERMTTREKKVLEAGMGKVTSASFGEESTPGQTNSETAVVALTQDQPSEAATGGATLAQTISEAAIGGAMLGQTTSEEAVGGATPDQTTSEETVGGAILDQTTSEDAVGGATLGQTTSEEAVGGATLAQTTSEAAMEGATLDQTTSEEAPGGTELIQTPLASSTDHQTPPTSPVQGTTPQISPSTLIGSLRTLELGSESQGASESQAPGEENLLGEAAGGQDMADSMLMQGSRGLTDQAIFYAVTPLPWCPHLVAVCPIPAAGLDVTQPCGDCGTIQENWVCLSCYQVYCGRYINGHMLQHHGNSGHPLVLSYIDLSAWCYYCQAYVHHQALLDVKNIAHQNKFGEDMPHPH
Procedure: as §1

T1 sequence (Q13547 whole entry): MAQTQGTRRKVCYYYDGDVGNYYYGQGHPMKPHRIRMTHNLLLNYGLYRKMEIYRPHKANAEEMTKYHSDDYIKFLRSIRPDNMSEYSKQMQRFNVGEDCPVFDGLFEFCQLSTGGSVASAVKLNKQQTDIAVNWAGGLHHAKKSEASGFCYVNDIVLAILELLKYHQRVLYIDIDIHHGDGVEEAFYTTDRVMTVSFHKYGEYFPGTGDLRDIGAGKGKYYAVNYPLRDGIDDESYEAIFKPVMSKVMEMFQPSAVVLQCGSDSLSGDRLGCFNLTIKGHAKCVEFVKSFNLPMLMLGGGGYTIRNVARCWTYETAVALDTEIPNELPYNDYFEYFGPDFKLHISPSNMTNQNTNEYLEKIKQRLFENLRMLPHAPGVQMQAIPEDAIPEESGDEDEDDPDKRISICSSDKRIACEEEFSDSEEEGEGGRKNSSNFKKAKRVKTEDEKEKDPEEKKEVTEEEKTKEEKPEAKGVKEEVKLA

Q: `O=C(NO)c1ccc(Cn2c3c(c4ccccc42)C(=O)C(CN2CC(F)(F)C2)CC3)cc1` (stereo not drawn) [Compound 121, 4-((3-((3,3-difluoroazetidin-1-yl)methyl)-4-oxo-1,2,3,4-tetrahydrocarbazol-9-yl)methyl)-N-hydroxybenzamide] was tested. Which IC50 (Human recombinant HDAC1) did it give?
A: 3720 nM

Q: And the “Selectivity for HDAC6, HD1/HD6” value (human recombinant HDAC6)?
A: 437.3

Q: And the IC50 (human recombinant HDAC6)?
A: 8.51 nM

Q: `CC1CN(CC2CCc3c(c4cc(F)ccc4n3CCCCCC(=O)NO)C2=O)CC(C)O1` (stereo not drawn) [Compound 323, 6-(3-((2,6-dimethylmorpholino)methyl)-6-fluoro-4-oxo-1,2,3,4-tetrahydrocarbazol-9-yl)-N-hydroxyhexanamide] was tested. Which IC50 (Human recombinant HDAC1) did it give?
A: 8970 nM

Q: And the “Selectivity for HDAC6, HD1/HD6” value (human recombinant HDAC6)?
A: 102.2

Q: What about the IC50 (human recombinant HDAC6) of the same compound?
A: 87.8 nM

Q: Which results are given for `COC[C@@H]1CCCN1CCN1CCc2c(c3cc(F)ccc3n2Cc2ccc(C(=O)NO)cc2)C1=O` [Compound 285, (S)-4-((8-fluoro-2-(2-(2-(methoxymethyl)pyrrolidin-1-yl)ethyl)-1-oxo-1,2,3,4-tetrahydropyrido[4,3-b]indol-5-yl)methyl)-N-hydroxybenzamide]?
A: IC50 (Human recombinant HDAC1): 13200 nM; Selectivity for HDAC6, HD1/HD6 (human recombinant HDAC6): 588.2; IC50 (human recombinant HDAC6): 22.5 nM

Q: Which results are given for `Cc1nccn1CC1C(=O)c2c(n(Cc3ccc(C(=O)NO)cc3)c3ccccc23)CC1(C)C` (stereo not drawn) [Compound 126, 4-((2,2-dimethyl-3-((2-methyl-1H-imidazol-1-yl)methyl)-4-oxo-1,2,3,4-tetrahydrocarbazol-9-yl)methyl)-N-hydroxybenzamide]?
A: IC50 (Human recombinant HDAC1): 5800 nM; Selectivity for HDAC6, HD1/HD6 (human recombinant HDAC6): 163.3; IC50 (human recombinant HDAC6): 35.5 nM

Q: What does the source list for `CC1(C)CC(=O)c2c(n(CCCCCC(=O)NO)c3cc(F)c(F)cc23)C1` [Compound 72, 6-(6,7-difluoro-2,2-dimethyl-4-oxo-1,2,3,4-tetrahydrocarbazol-9-yl)-N-hydroxyhexanamide]?
A: IC50 (Human recombinant HDAC1): 6060 nM; Selectivity for HDAC6, HD1/HD6 (human recombinant HDAC6): 28.2; IC50 (human recombinant HDAC6): 215 nM

Q: How did the IC50 (Human recombinant HDAC1) turn out when `CC1(C)CC(=O)c2c(n(CCCCCCC(=O)NO)c3ccc(Br)cc23)C1` [Compound 50, 7-(6-bromo-2,2-dimethyl-4-oxo-1,2,3,4-tetrahydrocarbazol-9-yl)-N-hydroxyheptanamide] was run?
A: 158 nM

Q: And the “Selectivity for HDAC6, HD1/HD6” value (human recombinant HDAC6)?
A: 17.7

Q: And the IC50 (human recombinant HDAC6)?
A: 8.95 nM

Q: For `Cc1cc2c(n1CCCCCCC(=O)NO)CC(C)(C)CC2=O` [Compound 347, N-hydroxy-7-(2,6,6-trimethyl-4-oxo-4,5,6,7-tetrahydroindol-1-yl)heptanamide], which IC50 (Human recombinant HDAC1) is on record?
A: 453 nM

Q: What about the “Selectivity for HDAC6, HD1/HD6” value (human recombinant HDAC6) of the same compound?
A: 16.8

Q: And the IC50 (human recombinant HDAC6)?
A: 27 nM

Q: Which results are given for `CC(C)(C)OC(=O)N1CCN(CC2CCc3c(c4ccccc4n3Cc3ccc(C(=O)NO)cc3)C2=O)CC1` (stereo not drawn) [Compound 140, tert-butyl 4-((9-(4-(hydroxycarbamoyl)benzyl)-4-oxo-2,3,4,9-tetrahydro-1H-carbazol-3-yl)methyl)piperazine-1-carboxylate]?
A: IC50 (Human recombinant HDAC1): 5900 nM; Selectivity for HDAC6, HD1/HD6 (human recombinant HDAC6): 325.2; IC50 (human recombinant HDAC6): 18.1 nM

Q: How did the IC50 (Human recombinant HDAC1) turn out when `O=C(CCCCCn1c2c(c3cc(F)ccc31)C(=O)C(CN1CCOCC1)CC2)NO` (stereo not drawn) [Compound 321, 6-(6-fluoro-3-(morpholinomethyl)-4-oxo-1,2,3,4-tetrahydrocarbazol-9-yl)-N-hydroxyhexanamide] was run?
A: 13300 nM

Q: What about the “Selectivity for HDAC6, HD1/HD6” value (human recombinant HDAC6) of the same compound?
A: 121.8

Q: What about the IC50 (human recombinant HDAC6) of the same compound?
A: 110 nM

Q: How did the IC50 (Human recombinant HDAC1) turn out when `O=C(NO)c1ccc(Cn2c3c(c4ccccc42)C(=O)N(CCN2CCC[C@H]2CO)CC3)cc1` [Compound 267, (S)—N-hydroxy-4-((2-(2-(2-(hydroxymethyl)pyrrolidin-1-yl)ethyl)-1-oxo-1,2,3,4-tetrahydropyrido[4,3-b]indol-5-yl)methyl)benzamide] was run?
A: 2270 nM

Q: What about the “Selectivity for HDAC6, HD1/HD6” value (human recombinant HDAC6) of the same compound?
A: 678.8

Q: What about the IC50 (human recombinant HDAC6) of the same compound?
A: 3.35 nM

Q: For `CN1CCCN(CCN2CCc3c(c4cc(F)ccc4n3Cc3ccc(C(=O)NO)cc3)C2=O)CC1` [Compound 291, 4-((8-fluoro-2-(2-(4-methyl-1,4-diazepan-1-yl)ethyl)-1-oxo-1,2,3,4-tetrahydropyrido[4,3-b]indol-5-yl)methyl)-N-hydroxybenzamide], which IC50 (Human recombinant HDAC1) is on record?
A: 7920 nM

Q: What about the “Selectivity for HDAC6, HD1/HD6” value (human recombinant HDAC6) of the same compound?
A: 426.3

Q: And the IC50 (human recombinant HDAC6)?
A: 18.6 nM
